The IC50 is the concentration that gives 50% inhibition.

In experiment [1] the test system is A2780. In words: Antiproliferative activity against human A2780 cells assessed as cell viability incubated for 48 hrs by MTS assay. The experiment is classed as functional, cell-based. The settings on record: A2780, 48 h. (In general: Tetrazolium assays rely on reduction of a dye to a coloured formazan, in cell work by metabolically active cells.)
In experiment [2] the test system is A2780. In words: Induction of apoptosis in human A2780 cells assessed as apoptotic cells at 8.5 uM measured after 48 hrs by Hoechst staining based fluorescence microscopic analysis relative to control. The experiment is classed as functional.
Experiment [3] relates to A2780. In words: Induction of apoptosis in human A2780 cells assessed as increased BAX expression at 8.5 uM after 48 hrs by Western blot analysis. The experiment is classed as functional, cell-based. In general terms: In western blotting, separated proteins are transferred to a membrane and probed.
The test system of experiment [4] is Calf thymus DNA. In words: Binding affinity to calf thymus DNA after 24 hrs by UV-vis spectroscopy. As to conditions: Bos taurus.
The subject of experiment [5] is Fibroblast. In words: Cytotoxicity against human fibroblasts cells assessed as cell viability incubated for 48 hrs by MTS assay. Type of experiment: cell-based.
Experiment [6] relates to MDA-MB-453. In words: Antiproliferative activity against human MDA-MB 453 cells assessed as reduction in cell viability incubated for 48 hrs by MTS assay. Type of experiment: functional, cell-based. The settings on record: MDA-MB-453, 48 h.
Experiment [7] concerns A2780. In words: Effect on cell cycle distribution in human A2780 cells at 8.5 uM measured after 4 to 24 hrs by flow cytometry. The experiment is classed as functional, cell-based. The settings on record: time 4-24 hrs. (Flow cytometry measures light scatter and fluorescence of single cells or particles in a stream.)
The test system of experiment [8] is Calf thymus DNA. In words: Binding affinity to calf thymus DNA at 100 uM by circular dichroism spectroscopy. The settings on record: Bos taurus.
Experiment [9] deals with A2780. In words: Induction of necrosis in human A2780 cells at 8.5 uM measured after 48 hrs by Annexin-V/propidium iodide staining-based flow cytometric analysis. Type of experiment: functional, cell-based.
Experiment [10] has as its system DNA. In words: Induction of DNA damage of Escherichia coli pUC18 plasmid DNA at 8.5 uM after 24 hrs by agarose gel electrophoresis method. Type of experiment: nucleic-acid assay.
The test system of experiment [11] is Cancer cell lines. In words: Induction of apoptosis in human A2780 cells assessed as DNA damage after 48 hrs by fluorescence microscopic analysis. Type of experiment: functional, cell-based.
The test system of experiment [12] is A2780. In words: Induction of autophagy in human A2780 cells assessed as autophagosome accumulation at 8.5 uM after 48 hrs by Hoechst staining based fluorescence microscopic analysis relative to control. Type of experiment: functional, cell-based.
Experiment [13] deals with DNA. In words: Induction of DNA damage in human A2780 cells assessed as DNA fragmentation at 8.5 uM after 48 hrs by agarose gel electrophoresis. The experiment is classed as cell-based.
Experiment [14] deals with A2780. In words: Induction of apoptosis in human A2780 cells assessed as late apoptotic cells at 8.5 uM measured after 48 hrs by Annexin-V/propidium iodide staining-based flow cytometric analysis (reference value: 6%). Type of experiment: functional.
In experiment [15] the test system is A2780. In words: Induction of intracellular reactive oxygen species production in human A2780 cells at 8.5 uM measured after 48 hrs by DCFH-DA probe based fluorescence microscopic analysis. The experiment is classed as functional, cell-based.
Experiment [16] deals with A2780. In words: Induction of apoptosis in human A2780 cells assessed as PARP level at 8.5 uM after 48 hrs by Western blot analysis. The experiment is classed as functional, cell-based.
Experiment [17] deals with A2780. In words: Induction of apoptosis in human A2780 cells assessed as decreased […] expression at 8.5 uM after 48 hrs by Western blot analysis. Type of experiment: functional, cell-based.
For experiment [18], the system named is A2780. In words: Induction of mitochondrial membrane potential loss in human A2780 cells at 8.5 uM after 48 hrs by JC-1 staining based flow cytometry. The experiment is classed as functional, cell-based.

Active and inactive are the calls of the source. No cut-off for these calls is given here.

For the compound `COc1cccc2c1C(=O)c1c(O)c3c(c(O)c1C2=O)C[C@@](O)(C(=O)CO)C[C@@H]3O[C@H]1C[C@H](N)[C@H](O)[C@H](C)O1` [DOXORUBICIN], the half-maximal inhibitory concentration (IC50) in [1] was 0.6 µM.
On to `O=C1Nc2ccc(Br)cc2[C@]12[C@@H](c1ccccc1)C(c1ccccc1)=NN2c1ccccc1`, for which the Activity is given as 31% in experiment [2] and 13% in experiment [14]. The result in experiment [3], in experiment [8], in experiment [11], in [12], in experiment [16] and in experiment [17] was Active. The result in experiment [18] was Active. In addition, the Kb in experiment [4] is 7.09 10^6/M. Moreover, the results for the 50% inhibitory concentration (IC50) in [5], in experiment [6] and in experiment [1] were 55.2 µM, 11.3 µM and 8.5 µM, respectively. The result in [7], in experiment [9], in experiment [10], in experiment [13] and in experiment [15] was inactive.
For `CC(C)(C)C1=NN(c2ccccc2)[C@]2(C(=O)Nc3cc(Cl)c(F)cc32)[C@H]1c1cccc(Cl)c1`, the half-inhibitory concentration (IC50) in experiment [5] was determined as 14.9 µM; in experiment [6], 14.7 µM; in [1] it was 11.4 µM.
Taken in the same sequence, the figures for `CC(C)(C)C1=NN(c2ccc(Cl)cc2)[C@]2(C(=O)Nc3cc(Cl)c(F)cc32)[C@H]1c1cccc(Cl)c1F` were 12.9 µM, 15 µM and 9.9 µM.
Take `CC(C)(C)C1=NN(c2ccccc2)[C@]2(C(=O)Nc3ccc(Br)cc32)[C@H]1c1ccccc1`: the results for the half-maximal inhibitory concentration (IC50) in [5], in experiment [6] and in experiment [1] were 15.7 µM, 14.6 µM and 12.1 µM, respectively.
Regarding `CC(C)(C)C1=NN(c2ccccc2)[C@]2(C(=O)Nc3cc(Cl)c(F)cc32)[C@H]1c1cccc(Cl)c1F`, the IC50 was determined as 17.3 µM in [5], 16.3 µM in experiment [6] and 11.7 µM in experiment [1].

Values taken from ChEMBL document CHEMBL4680320, “Exploiting the antiproliferative potential of spiropyrazoline oxindoles in a human ovarian cancer cell line” (Bioorg Med Chem, 2021).
